Values after ≈ are worked out from the molar mass of the structure shown. Where a name gives a salt, the structure may show the parent alone. Read-outs that look alike come from different tables or passages of the source.
Tests used:
Staphylococcus aureus = assay: in vitro agar plate filter paper disc test, zones of inhibition: Staphylococcus aureus; type: cell-based; settings: read-out: Minimal inhibiting concentration, Staphylococcus aureus
Method: (§1) Specific nutrient agar plates are completely innoculated with the various test organisms. Filter paper discs are placed on the surface of the agar and wetted with 0.1 ml. of a solution containing 10, 100 and 1,000 micrograms of the test compound. Zones of inhibition of microbial growth are used to indicate the antibacterial activity of the test compound against the various test organisms employed.
(§2) The following table summarizes the in vitro activity of the following representative compounds: 6-[2-(4-oxo-1-pyridinyl)acetylamino]penicillanicacid, sodium salt (1), 7-[2-(4-oxo-1-pyridinyl)acetylamino]desacetoxycephalosporanic acid (2), 6-[2-(3,5-diiodo-4-oxo-1-pyridinyl)acetylamino]penicillanic acid, sodium salt (3), 7-[2-(2,6-dimethyl-4-oxo-1-pyridinyl)acetylamino]desacetoxycephalosporanicacid, sodium salt (4), 7-[2-(4-oxo-1-pyridinyl)acetylamino]cephalosporanicacid, sodium salt (5) and 6-[2-(4-oxo-1-quinolinyl)acetylamino]penicillanic acid, sodium salt (6).

[1] = test system: Salmonella schottmuelleri; assay: in vitro agar plate filter paper disc test, zones of inhibition: Salmonella schottmuelleri; type: cell-based; settings: read-out: Minimal inhibiting concentration, Salmonella schottmuelleri
Method: as §1, §2

Streptococcus pyogenes = assay: in vitro agar plate filter paper disc test, zones of inhibition: Streptococcus pyogenes; type: cell-based; settings: read-out: Minimal inhibiting concentration, Streptococcus pyogenes
Method: as §1, §2

[2] = test system: (Penicillinase Producing) Staphylococcus aureus; assay: in vitro agar plate filter paper disc test, zones of inhibition: penicillinase producing Staphylococcus aureus; type: cell-based; settings: read-out: Minimal inhibiting concentration, (Penicillinase Producing) Staphylococcus aureus
Method: as §1, §2

acid resistance = type: physicochemical
[3] = in vitro, 0.1 ml. of a solution containing 10, 100 and 1,000 micrograms on filter paper discs
[4] = in vitro, penicillinase producing strain, 0.1 ml. of a solution containing 10, 100 and 1,000 micrograms on filter paper discs

| Structure (SMILES) | MIC (Staphylococcus aureus; [3]) [µg/mL] | MIC [1, 3] [µg/mL] | MIC (Streptococcus pyogenes; [3]) [µg/mL] | MIC [2, 4] [µg/mL] | Acid Resistance (acid resistance) | MIC (Staphylococcus aureus) [µg/mL] | MIC [1] [µg/mL] | MIC (Streptococcus pyogenes) [µg/mL] | MIC [2] [µg/mL] |
| --- | --- | --- | --- | --- | --- | --- | --- | --- | --- |
| CC(=O)OCC1=C(C(=O)O)N2C(=O)C(NC(=O)Cn3ccc(=O)cc3)C2SC1 (stereo not drawn) [(5), 7-[2-(4-oxo-1-pyridinyl)acetylamino]cephalosporanicacid, sodium salt] | 10 | 100 | 100 | 1000 | Yes | – | – | – | – |
| CC1(C)S[C@@H]2C(NC(=O)Cn3ccc(=O)cc3)C(=O)N2[C@H]1C(=O)[O-].[Na+] (stereo partly drawn) [(1), 6-[2-(4-oxo-1-pyridinyl)acetylamino]penicillanicacid, sodium salt] | – | – | – | – | Yes | 10 | 100 | 1000 | 1000 |
| CC1(C)S[C@@H]2C(NC(=O)Cn3ccc(=O)c4ccccc43)C(=O)N2[C@H]1C(=O)[O-].[Na+] (stereo partly drawn) [(6), 6-[2-(4-oxo-1-quinolinyl)acetylamino]penicillanic acid, sodium salt] | – | – | – | – | Yes | 10 | 100 | 1000 | 1000 |
| CC1=C(C(=O)O)N2C(=O)C(NC(=O)Cn3ccc(=O)cc3)C2SC1 (stereo not drawn) [(2), 7-[2-(4-oxo-1-pyridinyl)acetylamino]desacetoxycephalosporanic acid] | 1000 (≈ 2860 µM) | > 1000 | 1000 (≈ 2860 µM) | > 1000 | Yes | – | – | – | – |
| CC1=C(C(=O)O)N2C(=O)C(NC(=O)Cn3c(C)cc(=O)cc3C)C2SC1 (stereo not drawn) [(4), 7-[2-(2,6-dimethyl-4-oxo-1-pyridinyl)acetylamino]desacetoxycephalosporanicacid, sodium salt] | 1000 | > 1000 | > 1000 | > 1000 | Yes | – | – | – | – |
| CC1(C)S[C@@H]2C(NC(=O)Cn3cc(I)c(=O)c(I)c3)C(=O)N2[C@H]1C(=O)[O-].[Na+] (stereo partly drawn) [(3), 6-[2-(3,5-diiodo-4-oxo-1-pyridinyl)acetylamino]penicillanic acid, sodium salt] | – | – | – | – | Yes | 10 | 100 | > 1000 | > 1000 |

— patent publication US3989687A, “4-Oxo-1-pyridinyl penicillin derivatives” (Richardson-Merrell Inc., priority 1975, dated 1976)
